“And” between values parts separate entries of the source, which are not always exact repeats. Equal values may be shown once. Inconclusive results and toxic doses are left out.

For this assay, the system named is BDF1 mice, P1081 chloroleukemia ip, survival T/C. The assay is described as follows: NCI In Vivo Anticancer Drug Screen. Data for tumor model P1081 Chloroleukemia (intraperitoneal) in B6D2F1 (BDF1) mice. As to conditions: endpoint: mean survival time, higher = longer survival. How it is done: The antitumor activity of compounds was measured in mice bearing transplantable tumors. Survival or tumor size were measured and the results are expressed as the measurement made in the treated group (T) divided by the measurement made in the vehicle treated control group (C). The tumor model used in this assay is P1081 Chloroleukemia (intraperitoneal) in B6D2F1 (BDF1) mice

[1] abbreviates: dose: 16.0 mg/kg/injection, schedule: Q01DX Z (ip), vehicle: carboxymethylcellulose (CMC).
Setting [2] is: dose: 2.0 mg/kg/injection, schedule: Q01DX010 (ip), vehicle: saline.
Where [3] appears, read: dose: 4.0 mg/kg/injection, schedule: Q01DX010 (ip), vehicle: saline.
The mark [4] stands for this setting: dose: 8.0 mg/kg/injection, schedule: Q01DX010 (ip), vehicle: saline.
Setting [5] is: dose: 12.5 mg/kg/injection, schedule: Q01DX Z (ip), vehicle: carboxymethylcellulose (CMC).
Where [6] appears, read: dose: 62.5 mg/kg/injection, schedule: Q01DX010 (ip), vehicle: saline.
Setting [7] is: dose: 125.0 mg/kg/injection, schedule: Q01DX010 (ip), vehicle: saline.
Where [8] appears, read: dose: 16.0 mg/kg/injection, schedule: Q01DX010 (ip), vehicle: saline.
Where [9] appears, read: dose: 32.0 mg/kg/injection, schedule: Q01DX010 (ip), vehicle: saline.
The mark [10] stands for this setting: dose: 64.0 mg/kg/injection, schedule: Q01DX010 (ip), vehicle: saline.

As for `CC(=O)[C@H]1CC[C@H]2[C@@H]3C[C@H](C)C4=CC(=O)CC[C@]4(C)[C@H]3C(=O)C[C@]12C`, the T/C (dose: 6.3 mg/kg/injection, schedule: Q01DX Z (sc), vehicle: steriod suspending solution) was 121 % of control; the T/C (dose: 12.5 mg/kg/injection, schedule: Q01DX Z (sc), vehicle: steriod suspending solution) was 110 % of control; the T/C (dose: 25.0 mg/kg/injection, schedule: Q01DX Z (sc), vehicle: steriod suspending solution) was 110 % of control; the T/C (dose: 50.0 mg/kg/injection, schedule: Q01DX Z (sc), vehicle: steriod suspending solution) was 101 % of control; the T/C (dose: 100.0 mg/kg/injection, schedule: Q01DX Z (sc), vehicle: steriod suspending solution) was 98 % of control; the T/C (dose: 200.0 mg/kg/injection, schedule: Q01DX Z (sc), vehicle: steriod suspending solution) is 105 % of control and 94 % of control.
Regarding `NC(=O)N(CCCl)N=O`, the T/C reads like this: (dose: 1.0 mg/kg/injection, schedule: Q01DX Z (ip), vehicle: carboxymethylcellulose (CMC)) 97 % of control; (dose: 4.0 mg/kg/injection, schedule: Q01DX Z (ip), vehicle: carboxymethylcellulose (CMC)) 95 % of control; (dose: 8.0 mg/kg/injection, schedule: Q01DX Z (ip), vehicle: carboxymethylcellulose (CMC)) 106 % of control; under setting [1], 108 % of control.
With `Nc1nc(F)nc2c1ncn2C1OC(CO)C(O)C1O` (stereo not drawn), the T/C by setting is: (dose: 0.25 mg/kg/injection, schedule: Q01DX010 (ip), vehicle: saline) 100 % of control; (dose: 0.5 mg/kg/injection, schedule: Q01DX010 (ip), vehicle: saline) 94 % of control; (dose: 1.0 mg/kg/injection, schedule: Q01DX010 (ip), vehicle: saline) 110 % of control and 100 % of control; under setting [2], 111 % of control and 105 % of control; under setting [3], 95 % of control.
With `O=C(Nc1ccc(NC2=NCCN2)cc1)c1ccc(C(=O)Nc2ccc(NC3=NCCN3)cc2)cc1`, the T/C by setting is: under setting [2], 161 % of control; (dose: 2.0 mg/kg/injection, schedule: Q01DX Z (ip), vehicle: saline) 96 % of control; under setting [3], 300 % of control and 333 % of control; under setting [4], 300 % of control and 333 % of control; (dose: 8.0 mg/kg/injection, schedule: Q01DX Z (ip), vehicle: saline) 153 % of control and 171 % of control; (dose: 16.0 mg/kg/injection, schedule: Q01DX Z (ip), vehicle: saline) 190 % of control. The T/C (dose: 32.0 mg/kg/injection, schedule: Q01DX Z (ip), vehicle: saline) was 96 % of control.
As for `CSCS(=O)C[C@H](CO)NC(=O)/C=C/c1c(C)[nH]c(=O)[nH]c1=O` (stereo partly drawn), the T/C is 92 % of control (dose: 0.06 mg/kg/injection, schedule: Q01DX Z (ip), vehicle: saline); 93 % of control (dose: 0.12 mg/kg/injection, schedule: Q01DX Z (ip), vehicle: saline); 107 % of control and 97 % of control (dose: 0.25 mg/kg/injection, schedule: Q01DX Z (ip), vehicle: saline); 92 % of control and 102 % of control (dose: 0.5 mg/kg/injection, schedule: Q01DX Z (ip), vehicle: saline); 90 % of control (dose: 1.0 mg/kg/injection, schedule: Q01DX Z (ip), vehicle: saline).
With `S=P(N1CC1)(N1CC1)N1CC1`, the T/C is 98 % of control (dose: 0.37 mg/kg/injection, schedule: Q01DX Z (ip), vehicle: saline); 96 % of control (dose: 0.75 mg/kg/injection, schedule: Q01DX Z (ip), vehicle: saline); 109 % of control (dose: 1.5 mg/kg/injection, schedule: Q01DX Z (ip), vehicle: saline).
Regarding `COS(C)(=O)=O`, the T/C runs as follows: (dose: 1.6 mg/kg/injection, schedule: Q01DX Z (ip), vehicle: water) 94 % of control; (dose: 3.1 mg/kg/injection, schedule: Q01DX Z (ip), vehicle: water) 99 % of control; (dose: 6.25 mg/kg/injection, schedule: Q01DX Z (ip), vehicle: water) 120 % of control and 103 % of control; (dose: 12.5 mg/kg/injection, schedule: Q01DX Z (ip), vehicle: water) 109 % of control; (dose: 25.0 mg/kg/injection, schedule: Q01DX010 (ip), vehicle: saline) 95 % of control; (dose: 25.0 mg/kg/injection, schedule: Q01DX Z (ip), vehicle: water) 112 % of control and 98 % of control. Moreover, the T/C by setting is: (dose: 50.0 mg/kg/injection, schedule: Q01DX010 (ip), vehicle: saline) 115 % of control; (dose: 50.0 mg/kg/injection, schedule: Q01DX Z (ip), vehicle: water) 90 % of control; (dose: 100.0 mg/kg/injection, schedule: Q01DX Z (ip), vehicle: water) 91 % of control.
With `CCCSc1ncnc2nc[nH]c12`, the T/C (dose: 6.25 mg/kg/injection, schedule: Q01DX Z (ip), vehicle: carboxymethylcellulose (CMC)) is 111 % of control; the T/C under setting [5] is 122 % of control; the T/C (dose: 31.3 mg/kg/injection, schedule: Q01DX010 (ip), vehicle: saline) is 105 % of control and 100 % of control; the T/C under setting [6] is 105 % of control and 111 % of control; the T/C under setting [7] is 105 % of control and 111 % of control; the T/C (dose: 250.0 mg/kg/injection, schedule: Q01DX010 (ip), vehicle: saline) is 122 % of control and 100 % of control.
In the case of `c1ccc(CNc2ncnc3[nH]ncc23)cc1`, the T/C reads like this: (dose: 0.98 mg/kg/injection, schedule: Q01DX Z (ip), vehicle: carboxymethylcellulose (CMC)) 93 % of control; (dose: 1.95 mg/kg/injection, schedule: Q01DX Z (ip), vehicle: carboxymethylcellulose (CMC)) 94 % of control; (dose: 3.9 mg/kg/injection, schedule: Q01DX Z (ip), vehicle: carboxymethylcellulose (CMC)) 93 % of control; (dose: 7.8 mg/kg/injection, schedule: Q01DX Z (ip), vehicle: carboxymethylcellulose (CMC)) 112 % of control; under setting [4], 111 % of control; under setting [8], 111 % of control and 116 % of control. Also, the T/C reads like this: under setting [9], 111 % of control and 122 % of control; under setting [10], 111 % of control.
Turning to `N#Cc1cn(C2OC(CO)C(O)C2O)c2ncnc(N)c12` (stereo not drawn), the T/C (dose: 0.03 mg/kg/injection, schedule: Q01DX Z (ip), vehicle: carboxymethylcellulose (CMC)) is 97 % of control; the T/C (dose: 0.06 mg/kg/injection, schedule: Q01DX Z (ip), vehicle: carboxymethylcellulose (CMC)) was 103 % of control; the T/C (dose: 0.12 mg/kg/injection, schedule: Q01DX Z (ip), vehicle: carboxymethylcellulose (CMC)) was 103 % of control; the T/C (dose: 0.25 mg/kg/injection, schedule: Q01DX Z (ip), vehicle: carboxymethylcellulose (CMC)) is 88 % of control; the T/C (dose: 0.5 mg/kg/injection, schedule: Q01DX Z (ip), vehicle: carboxymethylcellulose (CMC)) was 94 % of control.
Consider `CC(CCC(C)OS(C)(=O)=O)OS(C)(=O)=O` (stereo not drawn), for which the T/C is 95 % of control (dose: 1.25 mg/kg/injection, schedule: Q01DX Z (ip), vehicle: carboxymethylcellulose (CMC)); 111 % of control (dose: 2.5 mg/kg/injection, schedule: Q01DX Z (ip), vehicle: carboxymethylcellulose (CMC)); 100 % of control under setting [3]; 105 % of control under setting [4]; 115 % of control and 105 % of control under setting [8]; 116 % of control under setting [9]. Besides, the T/C under setting [10] is 88 % of control.
Consider `CC(=O)Nc1ccc2nc3ccc(NC(C)=O)cc3[n+](-c3ccccc3)c2c1`, for which the T/C is 103 % of control under setting [5]; 109 % of control (dose: 25.0 mg/kg/injection, schedule: Q01DX Z (ip), vehicle: carboxymethylcellulose (CMC)); 111 % of control (dose: 50.0 mg/kg/injection, schedule: Q01DX Z (ip), vehicle: carboxymethylcellulose (CMC)).
`CN(C)c1nc(N(C)C)nc(N(C)C)n1`: the T/C was 95 % of control under setting [1]; 116 % of control and 100 % of control (dose: 18.8 mg/kg/injection, schedule: Q01DX010 (ip), vehicle: saline); 92 % of control (dose: 31.0 mg/kg/injection, schedule: Q01DX Z (ip), vehicle: carboxymethylcellulose (CMC)); 116 % of control and 100 % of control (dose: 37.5 mg/kg/injection, schedule: Q01DX010 (ip), vehicle: saline); 88 % of control (dose: 62.5 mg/kg/injection, schedule: Q01DX Z (ip), vehicle: carboxymethylcellulose (CMC)); 123 % of control (dose: 63.0 mg/kg/injection, schedule: Q01DX Z (ip), vehicle: carboxymethylcellulose (CMC)). Besides, the T/C was 116 % of control and 105 % of control (dose: 75.0 mg/kg/injection, schedule: Q01DX010 (ip), vehicle: saline); 111 % of control and 100 % of control (dose: 150.0 mg/kg/injection, schedule: Q01DX010 (ip), vehicle: saline).
On to `c1ccc(CCSc2ncnc3nc[nH]c23)cc1`, for which the T/C by setting is: under setting [6], 120 % of control; under setting [7], 120 % of control.

The values above are taken from PubChem BioAssay AID246 (DTP/NCI, 2004).
